Laboratory results as given in patent US20130039956A1, “USE OF NITROCARBOXYLIC ACIDS FOR THE TREATMENT, DIAGNOSIS AND PROPHYLAXIS OF AGGRESSIVE HEALING PATTERNS” (priority 2010, published 2013).

Experiments:
Type in all cases: cell-based
[1] = test system: fibroblasts; assay: Biofouling and cell adherence at prosthetic materials (dip-coated polymer films); settings: compared with native FA (control)
Description: Polymer scaffolds (polyurethane, polyvinylchloride, polylactate) which are used as implant materials were investigated. Solid and porous (pore sizes ranging from 50 to 150 micrometer) films of pure polymer scaffolds were cut into pieces (5×5 mm). After cleaning with NaOH and ethanol, they were dip-coated with native and nitrocarboxylic acids. Dip-coated pieces were suspended in a tube filled with argon and heated at 60° C. for 24 hours in the dark. Film pieces with and without coating were placed in a borosilicate glass tube that allowed fixation of two margins of the film pieces at the wall of the glass tube, thus, enabling a upright standing position in the center of the tube. Tubes were filled with various solutions for 12 hours. Solutions consisted of the following: 0.9% saline; 2% bovine albumin; 2% bovine albumin with addition of either fibronectin or laminin; and bovine serum. At the end of the exposure time, tubes were gently washed twice with 0.9% saline solution. One set of films was analyzed for protein absorption using a specific antibody staining method. An identically prepared set of films was further processed for cell cultures. A suspension containing preincubated fibroblasts in 1% FCS was added to the film-containing tubes. The tubes were tilted and adjusted in such a position so that the films were in a vertical orientation within the suspension. […] Tubes had two openings at the upper half (of the tilt tubes) that allowed free exchange of the atmosphere above the solution with the surrounding atmosphere. Sets were incubated at standard conditions for 24, 48, and 96 hours, respectively. Thereafter, films were carefully removed and rinsed with 0.9% saline solution. The cellularity and the shape of the cells on both sides of the films were evaluated after staining (Gimsa) using a reflected light microscope.

[2] = test system: fibroblasts; assay: Mechanical alteration of fibroblasts (cyclic stretching of coated polypropylene meshes); settings: cyclic stretching, day 7, day 21, 8 weeks, compared with native FA
Source text: In order to simulate the effects of chronic shear forces on a healing wound, an in vitro model was established. A flat balloon was placed on the bottom of a Petri dish. A silicone sheet was placed above and sealed with the side of the Petri dish. Then a 3 mm agar layer was casted on top of the sheet. Commercially available polypropylene meshes for hernia repair (microporous mesh, a low-weight and macroporous mesh with absorbable polyglactin filaments, and a heavy-weight and microporous mesh) were placed on the agar plates and fixed at 4 points at the side of the Petri dish. This setting enabled stretching of the meshes by filling the balloons with air, which was performed at 10-second intervals using an automated pumping device. The model can be used to evaluate the effect of three-dimensional (3D) shear forces on cell growth during cell cultivation. Preincubated suspensions of fibroblasts (1.5×10(5) cells) in a culture medium (10% FCS) were added to the culture dishes and allowed to grow for 48 hours. Cyclic stretching was started at day 3. Histological analysis was performed from the central portions of the meshes at day 7, at day 21, and after 8 weeks. The scaffolds were detached from the culture plate and carefully rinsed. Then, they were cut into pieces, casted, and further processed for standard histology and immunohistology. Care was taken to achieve a cutting plane that was vertical to the surface plane of the meshes. Histological analysis evaluated the cellularity, the content of extra cellular matrix (ECM), and the magnitude of protein synthesis. Meshes were dip-coated with native and nitro fatty acids or left blank in the same manner as in example 1. The uncoated meshes served as controls.

[3] = test system: human umbellical endothelial cells (HUVEC); assay: Adhesion, propagation and growth of endothelial cells on coated polystyrene films; settings: days 3, 7, 14, compared with native FA
Description: Polystyrene scaffolds were prepared and pretreated in the same manner as performed in example 1 by using the same nitrocarboxylic acids as listed in table 1. The film samples were placed in a culture dish containing a gel matrix, in which human umbellical endothelial cells (HUVEC) had been allowed to grow to confluence. The culture medium consisted of 5% FCS, which was replaced every 5 days. Cultivation was performed according to standard conditions. Films were evaluated at days 3, 7, and 14 after careful extraction from the culture dishes, rinsing with saline solution, and staining with methylene blue. Using a reflected light microscope, the films were immediately examined to evaluate the following: Propagation of cells to the film center, cell confluidity, multilayer formation, and cell shape.

[4] = test system: human dermal fibroblasts; assay: Extra cellular matrix production (collagen-1) in response to TGF-β2 in dermal fibroblasts; settings: 10 and 50 μmol, TGF-β2 25 ng/ml, 48 hours; compared with native FA
Description: In order to determine whether PPRA gamma stimulation due to nitrated fatty acids plays a role in the inventive inhibition of an aggressive healing pattern to an irritating stimulus, human dermal fibroblasts were investigated. A dominant-negative PPAR gamma mutant (L466A) cell clone was generated by polymerase chain reaction-based site-directed mutagenesis. Presence of PPAR gamma or absence was investigated using a PPAR gamma antibody reaction which was determined using an enhanced chemiluminescence detection system. Furthermore, one cell series was incubated with a selective irreversible PPAR gamma ligand (GW9662, 1 μmol), which effectively blocks PPAR gamma receptors.
Sequential cultivation of human dermal fibroblasts was performed in EMEM containing 5 mM glucose supplemented with 10% FCS under standard cultivation conditions. Cells were allowed to grow to confluence in a 96-well plate. Wild-type fibroblasts and PPAR gamma deficient fibroblasts were investigated by a set-up of 2×10 sample sets comprising: (1) blank control; (2) stimulation control; (3) preincubation with the PPAR gamma antagonist GW9662 (Cayman Chemical); (4) preincubation with the PPAR agonist troglitazone (25 μmol). In 2×4 sample sets, native fatty acids were added to the medium to achieve a final concentration of 10 and 50 μmol, respectively; in another 2×4 sets the nitrated fatty acids were added to the medium in the same concentration, while 2×2 sets served as controls. In 10 of the sets, TGF-β2 was added to the culture medium at a concentration of 25 ng/ml. Cultivation was continued for 48 hours and then processed in order to analyze collagen-1 as measured by enhanced chemiluminescence detection of immuncomplexes.

[5] = test system: Murine macrophage-like cells RAW 264.7 and murine L929 fibroblasts; assay: Monocyte/fibroblast co-culture on coated surgical suture material; settings: dip-coated suture material, 24 and 48 hours; compared with native FA
Source text: In order to determine immunoreactions to foreign material and its consequence on fibrogenesis, co-cultures of fibroblasts and monocytes were used. Commercially available suture materials (propylene, polyamide, and silk) were dip-coated with corresponding native and nitrated fatty acids. Untreated suture material served as control. Treated and untreated suture materials were out in small pieces and placed in a 96-well plate.
Murine macrophage-like cells RAW 264.7 and murine L929 fibroblasts were cultured to a population density of 5×10(5) each. Cell suspensions were merged achieving a cellularity of approximately 2.5×10(5) cell/ml of each cell population which were added to the wells. The suture material samples were fully covered by the suspension. Wells were continuously and gently shaken throughout the incubation period.
Supernatants were collected for assays after 24 and 48 hours and analyzed for profibrotic cytokines IL-13, IL-4, and IL-6, TGF-β1, collagen I.
Note: key: 0: not superior to native FA (control); +: Superior to native FA; ++: superior to both; +++: outstanding effect.

Row | Molecule | Relative differences: effect on biofouling and cell adherence [1] | Relative effect on fibroblasts under mechanical alteration [2] | Relative differences: effect on adhesion, propagation and growth of endothelial cells [3] | Relative effect on collagen-1 production in response to TGF-β2 [4] | Relative effect on profibrotic cytokines and collagen I on suture material [5]
1 | 5-nitro-eicosatrienoic acid [compound 4] | + | + | + | + | +
2 | 9,10-nitro-cis-oleic acid [compound 10] | +++ | ++ | ++ | ++ | +++
3 | 9,10-nitro-trans-oleic acid [compound 15] | ++ | + | + | + | +
4 | CCCCCCCC/C=C(/CCCCCCCC(=O)O)[N+](=O)[O-] [compound 1, 9-nitro cis-oleic acid] | ++ | +++ | ++ | +++ | ++
5 | CCCCC/C=C\C/C(=C\CCCCCCCC(=O)O)[N+](=O)[O-] [compound 2, 10-nitro-cis-linoleic acid] | ++ | +++ | +++ | ++ | +++
6 | CCCCCCCC/C(=C/CCCCCCCC(=O)O)[N+](=O)[O-] [compound 3, 10-nitro-cis-oleic acid] | ++ | ++ | ++ | ++ | ++
7 | CCCCC/C=C(/C/C=C\C/C=C\C/C=C\C/C=C\CCC(=O)O)[N+](=O)[O-] [compound 5, 16-nitro-all-cis-4,7,10,13,16-docosapentaenoic acid] | ++ | ++ | ++ | + | +
8 | CC/C=C\C/C=C\C/C=C(/CCCCCCCC(=O)O)[N+](=O)[O-] [compound 6, 9-nitro-all-cis-9-12,15-octadecatrienoic acid] | ++ | ++ | ++ | ++ | +
9 | CC/C=C\C/C=C\C/C(=C/C/C=C\C/C=C\CCCCCC(=O)O)[N+](=O)[O-] [compound 7, 14-nitro-all-cis-7,10,13,16,19-docosapentaenoic acid] | ++ | + | + | + | +
10 | CCCCCCCC/C=C(/CCCCCCCCCCCCCC(=O)O)[N+](=O)[O-] [compound 8, 15-nitro-cis-15-tetracosenoic acid] | + | + | + | 0 | +
11 | CCCCCCCC/C=C(\CCCCCCCC(=O)O)[N+](=O)[O-] [compound 9, 9-nitro-trans-oleic acid] | + | + | + | + | +
12 | CCCCC=C(C=CC=CCCCCCCCC(=O)O)[N+](=O)[O-] [compound 11, 13-nitro-octadeca-9,11,13-trienoic acid] | + | + | + | + | 0
13 | CCCCCCCC/C(=C\CCCCCCCC(=O)O)[N+](=O)[O-] [compound 12, 10-nitro-trans-oleic acid] | + | + | + | + | +
14 | CCCCCC/C=C(/CCCCCCCC(=O)O)[N+](=O)[O-] [compound 13] | + | + | ++ | + | +
15 | CCCCCCCCCCC/C=C(/CCCCC(=O)O)[N+](=O)[O-] [compound 21, 6-nitro-cis-6-octadecenoic acid] |  | + | 0 | ++ | +
